The target of test [1] is T1, full-length proMMP9(1-707) (SEQ ID NO:1), activation by catalytic MMP3 (Homo sapiens, UniProt P14780, R574P).
T1 construct: made in house; host or cells: HEK293 (proMMP9, secreted); E. coli (MMP3)
The experiment in a line: proMMP9/MMP3 P126 Activation Assay. In kind it is biochemical. As to the method: proMMP9/MMP3 P126 Activation Assay
The reaction volume was 50 μL. […] Reactivity of residual MMP3 towards P-126 substrate was minimal under these conditions.

For test [2], the target named is T2, proMMP9(20-445;ΔFnII) (SEQ ID NO:6) (Homo sapiens, UniProt P14780, DEL216-390).
T2 construct: start methionine (N); made in house; host or cells: E. coli BL21(DE3) RIL
T2 sequence (P14780 with tags, fused parts or gaps DEL216-390): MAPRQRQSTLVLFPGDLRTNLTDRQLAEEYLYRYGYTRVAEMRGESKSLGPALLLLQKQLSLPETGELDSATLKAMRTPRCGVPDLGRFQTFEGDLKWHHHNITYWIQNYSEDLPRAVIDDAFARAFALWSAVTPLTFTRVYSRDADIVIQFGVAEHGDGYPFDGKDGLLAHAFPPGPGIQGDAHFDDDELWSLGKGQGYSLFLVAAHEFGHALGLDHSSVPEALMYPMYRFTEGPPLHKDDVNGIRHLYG
The experiment in a line: ThermoFluor binding assay with proMMP9(20-445;ΔFnII). The method, boiled down:
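Thermal-shift binding using 2.8 μM proMMP9(20-445;ΔFnII) with 50 μM 1,8-ANS in 50 mM HEPES pH 7.0, 100 mM NaCl, 0.001% Tween-20, 2.5 mM MgCl2, 300 μM CaCl2. Compound serially diluted; heated 40–90 °C at 1 °C/min, fluorescence 500 nm. Tm shifts fitted using DSC/ThermoFluor-derived thermodynamic parameters.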
For orientation: Differential scanning fluorimetry follows unfolding on heating by fluorescence.

Test [3] deals with T3, proMMP9(67-444;ΔFnII) (SEQ ID NO:5) (Homo sapiens, UniProt P14780, DEL216-390).
T3 construct: start methionine (N); made in house; host or cells: E. coli BL21(DE3) RIL
T3 sequence (P14780 with tags, fused parts or gaps DEL216-390): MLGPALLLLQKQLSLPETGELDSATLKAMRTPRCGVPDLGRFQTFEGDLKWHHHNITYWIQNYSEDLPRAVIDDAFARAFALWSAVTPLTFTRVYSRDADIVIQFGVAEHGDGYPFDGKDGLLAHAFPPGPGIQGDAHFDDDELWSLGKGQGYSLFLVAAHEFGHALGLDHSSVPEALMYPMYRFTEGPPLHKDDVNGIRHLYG
As to the kind of experiment: ThermoFluor binding assay with proMMP9(67-444;ΔFnII). As to the method:
The ThermoFluor® (TF) assay is a 384-well plate-based binding assay that measures thermal stability of proteins (Biomol Screen 2001, 6, 429-40; Biochemistry 2005, 44, 5258-66). The experiments were carried out using instruments available from Johnson & Johnson Pharmaceutical Research & Development, LLC. TF dye used in all experiments was […] (1,8-ANS) (Invitrogen: A-47).
Compounds were arranged in a pre-dispensed plate (Greiner Bio-one: 781280), wherein compounds were serially diluted in 100% DMSO across 11 columns within a series. Columns 12 and 24 were used as DMSO reference and contained no compound. For multiple compound concentration-response experiments, the compound aliquots ([…]) were robotically predispensed directly into black 384-well polypropylene PCR microplates (Abgene: TF-0384/k) using a Cartesian Hummingbird liquid handler (DigiLab, Holliston, Mass.). Following compound dispense, protein and dye solutions were added to achieve the final assay volume of 3 μL. The assay solutions were overlayed with 1 μL of silicone oil (Fluka, type DC 200: 85411) to prevent evaporation.
Assay plates were robotically loaded onto a thermostatically controlled PCR-type thermal block and then heated from 40 to 90° C. at a ramp-rate of 1° C./min for all experiments. Fluorescence was measured by continuous illumination with UV light (Hamamatsu LC6) supplied via fiber optics and filtered through a band-pass filter (380-400 nm; >60D cutoff). Fluorescence emission of the entire 384-well plate was detected by measuring light intensity using a CCD camera (Sensys, Roper Scientific) filtered to detect 500±25 nm, resulting in simultaneous and independent readings of all 384 wells. A single image with 20-sec exposure time was collected at each temperature, and the sum of the pixel intensity in a given area of the assay plate was recorded vs temperature and fit to standard equations to yield the Tm (J Biomol Screen 2001, 6, 429-40).
Thermodynamic parameters necessary for fitting compound binding for each proMMP were estimated by differential scanning calorimetry (DSC) and from ThermoFluor® data. The heat capacity of unfolding for each protein was estimated from the molecular weight and from ThermoFluor® dosing data.
ThermoFluor® with proMMP9(67-444;ΔFnII) (SEQ ID NO:5)
The protein sample preparations had to include a desalting buffer exchange step via a PD-10 gravity column (GE Healthcare). The desalting buffer exchange was performed prior to diluting the protein to the final assay concentration of 3.5 μM proMMP9(67-444;ΔFnII) (SEQ ID NO:5). The concentration of proMMP9(67-444;ΔFnII) (SEQ ID NO:5) was determined spectrophotometrically based on a calculated extinction coefficient of ε280=33900 M^−1cm^−1, a calculated molecular weight of 22.6 kDa, and calculated pI of 5.20. ThermoFluor® reference conditions were defined as follows: 80 μg/mL (3.5 μM) proMMP9(67-444;ΔFnII) (SEQ ID NO:5), 50 μM 1,8-ANS, pH 7.0 Buffer (50 mM HEPES pH 7.0, 100 mM NaCl, 0.001% Tween-20, 2.5 mM MgCl2, 300 μM CaCl2). The thermodynamic parameters for proMMP9(67-444;ΔFnII) (SEQ ID NO:5) are as follows: Tm (° C.)=63 (+/−0.1), ΔUH(Tm) (cal mol^−1)=105000(+/−5000), ΔUS(Tm) (cal mol^−1 K^−1)=[…], ΔUCp (cal mol^−1 K^−1)=2000.

Counter-ions that a name gives are not always drawn.

T1 sequence (P14780 20-707 R574P): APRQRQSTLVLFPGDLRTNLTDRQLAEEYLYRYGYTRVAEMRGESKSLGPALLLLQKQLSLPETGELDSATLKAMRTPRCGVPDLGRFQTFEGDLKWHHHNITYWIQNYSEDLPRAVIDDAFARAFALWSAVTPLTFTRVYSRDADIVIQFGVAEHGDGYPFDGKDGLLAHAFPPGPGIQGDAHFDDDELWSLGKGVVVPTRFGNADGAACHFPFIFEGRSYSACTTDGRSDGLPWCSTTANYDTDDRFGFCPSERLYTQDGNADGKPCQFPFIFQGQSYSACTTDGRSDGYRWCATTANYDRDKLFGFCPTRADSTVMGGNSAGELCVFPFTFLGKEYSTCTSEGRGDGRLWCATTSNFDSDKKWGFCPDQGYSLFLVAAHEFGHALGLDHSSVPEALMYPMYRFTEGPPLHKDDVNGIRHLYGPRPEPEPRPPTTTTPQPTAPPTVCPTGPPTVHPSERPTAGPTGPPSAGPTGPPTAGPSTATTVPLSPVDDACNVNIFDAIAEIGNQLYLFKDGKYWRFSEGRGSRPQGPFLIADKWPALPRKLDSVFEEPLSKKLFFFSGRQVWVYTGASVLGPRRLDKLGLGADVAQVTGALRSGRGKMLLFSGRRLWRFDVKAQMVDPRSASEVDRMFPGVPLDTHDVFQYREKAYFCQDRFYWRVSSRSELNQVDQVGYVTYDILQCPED

For `CC(C)Oc1ccc(S(N)(=O)=O)cc1Nc1nc(-c2ccc(N3CCC(N(C)C)CC3)nc2)cs1` [Example 41, 3-[4-(4-Dimethylamino-3,4,5,6-tetrahydro-2H-[1,2′]bipyridinyl-5′-yl)-thiazol-2-ylamino]-4-isopropoxy-benzenesulfonamide.TFA], in test [1], the IC50 – broadly, the point on the concentration scale where inhibition reaches its midpoint – was 59 nM. Further, the figures for the Kd in test [2] and in test [3] were 51 nM and 220 nM, respectively.
Taken in the same sequence, the figures for `CC(C)Cc1ccc(C(N)=O)cc1Nc1nc(-c2ccc(N3CCN(C)CC3)nc2)cs1` [Example 8, 4-Isobutyl-3-{4-[6-(4-methyl-piperazin-1-yl)-pyridin-3-yl]-thiazol-2-ylamino}-benzamide.TFA] were 1800 nM, 370 nM and 2900 nM.
Taken in the same sequence, the figures for `COc1ccc(S(N)(=O)=O)cc1Nc1nc(-c2ccc(N3CCN(C)CC3)nc2)cs1` [Example 29, 4-Methoxy-3-{4-[6-(4-methyl-piperazin-1-yl)-pyridin-3-yl]-thiazol-2-ylamino}-benzenesulfonamide] were 1400 nM, 930 nM and 1600 nM.
Taken in the same sequence, the figures for `COc1cc(C)c(C(N)=O)cc1Nc1nc(-c2ccc(N3CCN(C)CC3)nc2)cs1` [Example 7, 4-Methoxy-2-methyl-5-{4-[6-(4-methyl-piperazin-1-yl)-pyridin-3-yl]-thiazol-2-ylamino}-benzamide.TFA] were 2400 nM, 1200 nM and 3900 nM.
Turning to `CC(C)Oc1ccc(S(N)(=O)=O)cc1Nc1nc(-c2ccc(NCC3CC3)nc2)cs1` [Example 62, 3-((4-(6-((Cyclopropylmethyl)amino)pyridin-3-yl)thiazol-2-yl)amino)-4-isopropoxybenzenesulfonamide.TFA], the IC50 in test [1] was determined as 610 nM. Besides, the dissociation constant (Kd) (commonly the concentration at which binding is half-saturated) in test [2] was 510 nM; in test [3], 2200 nM.
Take `COc1cc(C(N)=O)ccc1Nc1nc(-c2cccnc2)cs1` [Example 6, 3-Methoxy-4-(4-pyridin-3-yl-thiazol-2-ylamino)-benzamide]: the midpoint of inhibition in test [1], the IC50, lay at 11000 nM. Further, the dissociation constant (Kd) is 70000 nM in test [2] and 11000 nM in test [3].
In turn, `CC(C)Oc1ccc(S(N)(=O)=O)cc1Nc1nc(-c2ccc(C(=O)N3CCCN(C)CC3)nc2)cs1` [Example 49, 3-{4-[6-(4-Methyl-[1,4]diazepane-1-carbonyl)-pyridin-3-yl]-thiazol-2-ylamino}-4-isopropoxy-benzenesulfonamide.TFA] came in with an IC50 in test [1] of 1000 nM. Also, the Kd in test [2] is 830 nM; in test [3], 2000 nM.
On the same counts, the results for `CCN1CCN(C(=O)c2ccc(-c3csc(Nc4cc(S(N)(=O)=O)ccc4OC(C)C)n3)cn2)CC1` [Example 47, 4-Isopropoxy-3-{4-[6-(4-ethyl-piperazine-1-carbonyl)-pyridin-3-yl]-thiazol-2-ylamino}-benzenesulfonamide.TFA] are 980 nM, 900 nM and 1500 nM.
Taken in the same sequence, the figures for `CC(C)Oc1ccc(S(N)(=O)=O)cc1Nc1nc(-c2ccc(NCCN(C)C)nc2)cs1` [Example 42, 3-(4-{6-[(2-Dimethylamino-ethyl)-amino]-pyridin-3-yl}-thiazol-2-ylamino)-4-isopropoxy-benzenesulfonamide.TFA] were 150 nM, 130 nM and 680 nM.
Taken in the same sequence, the figures for `CC(C)Oc1ccc(C#N)cc1Nc1nc(-c2cccnc2)cs1` [Example 16, 4-Isopropoxy-3-(4-pyridin-3-yl-thiazol-2-ylamino)-benzonitrile.HBr] were 3200 nM, 20000 nM and 2900 nM.
`CC(C)Oc1ccc(S(C)(=O)=O)cc1Nc1nc(-c2cccnc2)cs1` [Example 10, (2-Isopropoxy-5-methanesulfonyl-phenyl)-(4-pyridin-3-yl-thiazol-2-yl)-amine.TFA] gave an IC50 in test [1] of 2600 nM. The figures for the Kd in test [2] and in test [3] were 660 nM and 3500 nM, respectively.
On the same counts, the results for `CC(C)Oc1ccc(S(N)(=O)=O)cc1Nc1nc(-c2ccc(N3CCCN(C)CC3)nc2)cs1` [Example 40, 4-Isopropoxy-3-{4-[6-(4-methyl-[1,4]diazepan-1-yl)-pyridin-3-yl]-thiazol-2-ylamino}-benzenesulfonamideamide.TFA] are 87 nM, 44 nM and 330 nM.
On the same counts, the results for `CC(C)Oc1ccc(C(N)=O)cc1Nc1nc(-c2ccnc(N3CCN(C)CC3)c2)cs1` [Example 28, 4-Isopropoxy-3-{4-[2-(4-methyl-piperazin-1-yl)-pyridin-4-yl]-thiazol-2-ylamino}-benzamide.TFA] are 210 nM, 82 nM and 990 nM.
On the same counts, the results for `CC(C)Oc1ccc(S(N)(=O)=O)cc1Nc1nc(-c2ccc(C(=O)N3CCN(C(C)C)CC3)nc2)cs1` [Example 51, 4-Isopropoxy-3-{4-[6-(4-isopropyl-piperazine-1-carbonyl)-pyridin-3-yl]-thiazol-2-ylamino}-benzenesulfonamide.TFA] are 1800 nM, 1200 nM and 2700 nM.
As to `COc1ccc(C(N)=O)cc1Nc1nc(-c2ccc(N3CCN(C)CC3)nc2)cs1` [Example 32, 4-Methoxy-3-{4-[6-(4-methyl-piperazin-1-yl)-pyridin-3-yl]-thiazol-2-ylamino}-benzamide], the half-maximal inhibitory concentration (IC50) in test [1] stood at 840 nM. Also, the equilibrium dissociation constant (Kd) in test [2] was 360 nM; in test [3], 2300 nM.
On the same counts, the results for `COCCCc1ccc(-c2csc(Nc3cc(S(N)(=O)=O)ccc3OC(C)C)n2)cn1` [Example 94, 4-Isopropoxy-3-((4-(6-(3-methoxypropyl)pyridin-3-yl)thiazol-2-yl)amino)benzenesulfonamide.TFA] are 520 nM, 430 nM and 1300 nM.
Taken in the same sequence, the figures for `CC(C)Oc1ccc(S(N)(=O)=O)cc1Nc1nc(-c2ccc(N3CCOCC3)nc2)cs1` [Example 37, 4-Isopropoxy-3-[4-(6-morpholin-4-yl-pyridin-3-yl)-thiazol-2-ylamino]-benzenesulfonamide.TFA] were about 2000 nM, 1300 nM and 2400 nM.
